# In publication PMC5855801, “Benzothiophenone Derivatives Targeting Mutant Forms of Estrogen Receptor-α in Hormone-Resistant Breast Cancers” (International Journal of Molecular Sciences, 2018):
# Columns and labels:
# T47D cells = experiment: Presto Blue cell viability assay, T47D; type: cell-based, human; details: 96 h, two-fold dilution starting at 50 µM
# Protocol: The Presto Blue cell viability assay was used to assess the growth inhibitory potential of VPC-16606 on ERα^+ T47D, MCF7, ZR75-1 and TamR3 cells. They were treated for 96 h with a two-fold dilution range of the compound starting at 50 µM.
# (§1) Cell viability was determined using the Presto Blue cell viability assay (Thermo Fisher Scientific, Waltham, MA, USA). Cells were seeded in clear bottom black-walled 96-well plates at a density of 5 × 10^3 cells/well in 100 μL of their respective media. On the following day, the cells were treated with test compounds (0.001–22.5 μM) in the presence of 1 nM E2 and incubated at 37 °C. After 96 h, 30 μL of Presto Blue reagent was added and incubated for 10 min at 37 °C. The fluorescent signal from viable cells was measured at 590 nm.
# PC3 cells = experiment: Presto Blue cell viability assay, PC3; type: cell-based, human; details: PC3, 50 µM, 96 h
# Protocol: as §1
# Supplementary Materials: Benzothiophenone Derivatives Targeting Mutant Forms of Estrogen Receptor-α in Hormone-Resistant Breast Cancers
# Figure S1. Effect of VPC-16606 on viability of PC3 cells as measured in the Presto Blue assay. […]
# Figure S2. TR-FRET Assay showing displacement of Fluorescein labelled PGC1 α peptide by VPC-16606 upon incubation with ER β-LBD. OHT was used at 1µM. Error bars represent standard deviation for two independent experiments performed in triplicates. […]
# [1] = target: T1, full-length ERα (estrogen binding site) (Homo sapiens, UniProt P03372); experiment: E2 displacement fluorescence polarization assay (PolarScreen ERα Competitor Green); details: highest concentration 6 µM, compared to positive control E2
# T1 construct: in the presence of 25 nM full-length ERα and 4.5 nM flourescein-E2; purchased Life Technologies P2698
# T1 sequence (P03372 1-595): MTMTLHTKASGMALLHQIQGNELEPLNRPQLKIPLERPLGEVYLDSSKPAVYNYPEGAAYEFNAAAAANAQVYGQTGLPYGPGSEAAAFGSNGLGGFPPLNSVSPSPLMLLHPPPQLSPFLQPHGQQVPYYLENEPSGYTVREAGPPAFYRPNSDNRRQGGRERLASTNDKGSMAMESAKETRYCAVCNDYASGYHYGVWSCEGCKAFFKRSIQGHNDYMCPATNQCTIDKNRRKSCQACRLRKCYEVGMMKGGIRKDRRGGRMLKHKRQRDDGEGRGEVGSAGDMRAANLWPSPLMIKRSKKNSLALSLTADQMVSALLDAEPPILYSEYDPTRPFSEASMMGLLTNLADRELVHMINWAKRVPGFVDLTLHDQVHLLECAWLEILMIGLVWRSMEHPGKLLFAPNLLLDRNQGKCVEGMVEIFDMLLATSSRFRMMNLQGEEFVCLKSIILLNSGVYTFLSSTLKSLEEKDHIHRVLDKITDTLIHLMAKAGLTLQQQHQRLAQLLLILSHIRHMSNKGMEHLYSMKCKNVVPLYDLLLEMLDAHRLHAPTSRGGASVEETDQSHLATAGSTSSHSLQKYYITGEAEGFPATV
# Protocol: It should be noted that selective estrogen receptor modulators (SERMs) such as tamoxifen displace co-activator protein from AF2 allosterically, i.e., by binding to the estrogen binding site (EBS). To ascertain whether VPC-16606 is not an EBS binder, 17 β-estradiol (E2) displacement was assessed with the Polar Screen Estrogen Receptor-α Competitor Green Assay Kit (P2698, Life Technologies, Carlsbad, CA, USA).
# E2 displacement was assessed with the PolarScreen ERα Competitor Assay Green kit (P2698; LifeTechnologies) as per the instructions of the manufacturer. Briefly, 50 µL of assay buffer containing VPC-16606 were added to a 50-μL mixture containing 2× full-length ERα and flourescein-E2 in each well of a […] black plate to obtain final concentrations of 0.2–6.3 μM of the test compound in the presence of 25 nM full-length ERα and 4.5 nM flourescein-E2. After 2 h, polarisation was measured on a Tecan F500 microplate reader.
smiles,measurement,setting,value
CC(=O)N(/N=C1\Sc2c(C)cccc2C1=O)c1ccccc1Cl [VPC-16606],Cell growth (Presto Blue viability),T47D cells,significantly reduce the growth
same,Cell viability of PC3 cells,PC3 cells,affects cell viability
same,Displacement of fluorescein labelled E2 (FL-E2) from the EBS,[1],minimal displacement
